{"source": "patent US8828456B2", "about": "“Method of external skin application of composition containing red pine root extract” (Amorepacific Corporation, priority 2009, dated 2014)", "assay": "Free radical removal activity (DPPH method)", "format": "biochemical", "description": "Specifically, each of the extracts obtained in Example 1 and Comparative Example 1 was diluted in ethanol to varying concentrations (0, 50, 100, 200, 300 and 400 μg/mL), and 10 μl of each dilution was added to each well of a 96-well plate. A solution of 5 mM DPPH in ethanol was added to each well to a total volume of 200 μl. The resulting solution was incubated at 37° C. for 30 minutes, and then measured at 520 nm using an ELISA reader (DI Biotech, Korea). Based on the measured absorbance, free radical removal activity was calculated according to the following Equation 1. As a positive control, vitamin C known to have excellent antioxidant activity was used. Radical removal activity (%)=absorbance of control-absorbance of sample/absorbance of control×100 Equation 1"}
{"smiles": "O=C1O[C@H]([C@@H](O)CO)C(O)=C1O", "note": "[Vitamin C, vitamin C]", "values": [{"measurement": "Radical Removal Activity (%)", "setting": "50 μg/mL", "result": 30, "unit": "%"}, {"measurement": "Radical Removal Activity (%)", "setting": "100 μg/mL", "result": 90, "unit": "%"}, {"measurement": "Radical Removal Activity (%)", "setting": "200 μg/mL", "result": 91, "unit": "%"}, {"measurement": "Radical Removal Activity (%)", "setting": "300 μg/mL", "result": 90, "unit": "%"}, {"measurement": "Radical Removal Activity (%)", "setting": "400 μg/mL", "result": 90, "unit": "%"}]}
